Results on eleven compounds are retold here after ChEMBL document CHEMBL1201862, “PubChem BioAssay data set” (2004).

In data set [1] the test system is Escherichia coli. Briefly: microbe, parasite or virus in culture.
The subject of data set [2] is Vero. Briefly: cells. It counts as functional. The settings on record: Chlorocebus sabaeus.
Data set [3] addresses Cytochrome P450 2D6 (Homo sapiens, UniProt P10635).
Data set [4] concerns the target Cytochrome P450 3A4 (Homo sapiens, UniProt P08684).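 Note: CYP3A4 tested as one member of a cytochrome P450 panel screen.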
For data set [5], the target named is Cytochrome P450 2C9 (Homo sapiens, UniProt P11712).
Chain of Cytochrome P450 2C9 (P11712 whole entry): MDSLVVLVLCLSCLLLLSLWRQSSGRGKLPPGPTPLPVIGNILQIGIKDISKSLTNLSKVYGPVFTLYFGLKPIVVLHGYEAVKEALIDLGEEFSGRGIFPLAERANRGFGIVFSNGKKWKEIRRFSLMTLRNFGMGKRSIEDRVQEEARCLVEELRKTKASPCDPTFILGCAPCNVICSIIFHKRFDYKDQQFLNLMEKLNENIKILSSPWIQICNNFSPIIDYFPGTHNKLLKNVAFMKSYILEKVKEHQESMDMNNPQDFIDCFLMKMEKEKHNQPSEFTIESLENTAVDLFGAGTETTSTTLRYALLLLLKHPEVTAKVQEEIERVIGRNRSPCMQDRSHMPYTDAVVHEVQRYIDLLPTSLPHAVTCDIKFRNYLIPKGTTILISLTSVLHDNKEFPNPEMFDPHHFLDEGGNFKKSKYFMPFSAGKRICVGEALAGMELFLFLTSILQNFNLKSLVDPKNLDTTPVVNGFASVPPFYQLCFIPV
Data set [6] deals with T1, Exodeoxyribonuclease V (Escherichia coli (strain K12), UniProt P04993+P07648+P08394).
T1 sequence (P04993 whole entry): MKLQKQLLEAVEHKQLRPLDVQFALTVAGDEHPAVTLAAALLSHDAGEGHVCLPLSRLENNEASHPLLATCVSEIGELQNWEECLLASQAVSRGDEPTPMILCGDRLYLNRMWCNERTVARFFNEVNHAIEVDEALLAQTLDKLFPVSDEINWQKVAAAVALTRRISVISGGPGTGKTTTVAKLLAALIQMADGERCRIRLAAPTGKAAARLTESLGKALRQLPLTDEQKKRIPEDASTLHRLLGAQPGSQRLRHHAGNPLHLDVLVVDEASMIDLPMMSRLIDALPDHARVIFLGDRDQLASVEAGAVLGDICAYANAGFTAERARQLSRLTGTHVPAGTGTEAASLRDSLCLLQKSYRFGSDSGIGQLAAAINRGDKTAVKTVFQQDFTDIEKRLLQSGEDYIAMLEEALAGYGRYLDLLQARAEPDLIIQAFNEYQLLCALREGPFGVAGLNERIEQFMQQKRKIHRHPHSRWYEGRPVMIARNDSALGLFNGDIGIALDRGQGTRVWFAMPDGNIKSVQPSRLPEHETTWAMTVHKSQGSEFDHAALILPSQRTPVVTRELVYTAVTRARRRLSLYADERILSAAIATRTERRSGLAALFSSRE
T1 sequence (P07648 whole entry): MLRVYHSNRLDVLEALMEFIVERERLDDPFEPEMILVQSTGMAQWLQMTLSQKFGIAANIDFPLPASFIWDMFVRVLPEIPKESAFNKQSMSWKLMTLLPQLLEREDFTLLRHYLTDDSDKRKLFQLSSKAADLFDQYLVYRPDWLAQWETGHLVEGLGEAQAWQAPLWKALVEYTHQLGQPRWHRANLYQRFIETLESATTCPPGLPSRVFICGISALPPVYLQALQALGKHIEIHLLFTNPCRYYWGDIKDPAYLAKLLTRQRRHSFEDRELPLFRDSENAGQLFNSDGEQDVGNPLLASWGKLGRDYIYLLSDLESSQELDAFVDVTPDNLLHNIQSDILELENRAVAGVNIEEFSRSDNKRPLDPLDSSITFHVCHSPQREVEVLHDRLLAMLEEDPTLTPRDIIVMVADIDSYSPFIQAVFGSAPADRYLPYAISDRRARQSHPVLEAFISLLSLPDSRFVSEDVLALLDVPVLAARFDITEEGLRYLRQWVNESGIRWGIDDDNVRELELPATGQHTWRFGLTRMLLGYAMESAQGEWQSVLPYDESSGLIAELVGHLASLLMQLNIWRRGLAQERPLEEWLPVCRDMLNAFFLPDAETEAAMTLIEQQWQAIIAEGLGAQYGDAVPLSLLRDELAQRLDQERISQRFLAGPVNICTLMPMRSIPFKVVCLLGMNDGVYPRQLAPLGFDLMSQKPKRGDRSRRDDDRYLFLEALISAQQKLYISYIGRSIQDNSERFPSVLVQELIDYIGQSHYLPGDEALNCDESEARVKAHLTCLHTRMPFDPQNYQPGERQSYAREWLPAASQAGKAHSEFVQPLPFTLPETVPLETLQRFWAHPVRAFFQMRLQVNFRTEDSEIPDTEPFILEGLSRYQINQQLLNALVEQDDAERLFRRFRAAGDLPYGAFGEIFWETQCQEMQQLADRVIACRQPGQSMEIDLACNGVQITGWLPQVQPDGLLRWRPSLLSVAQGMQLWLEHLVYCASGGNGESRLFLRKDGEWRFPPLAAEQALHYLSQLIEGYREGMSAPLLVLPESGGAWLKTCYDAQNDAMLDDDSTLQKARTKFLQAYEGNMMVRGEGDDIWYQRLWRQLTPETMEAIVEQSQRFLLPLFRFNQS
T1 sequence (P08394 whole entry): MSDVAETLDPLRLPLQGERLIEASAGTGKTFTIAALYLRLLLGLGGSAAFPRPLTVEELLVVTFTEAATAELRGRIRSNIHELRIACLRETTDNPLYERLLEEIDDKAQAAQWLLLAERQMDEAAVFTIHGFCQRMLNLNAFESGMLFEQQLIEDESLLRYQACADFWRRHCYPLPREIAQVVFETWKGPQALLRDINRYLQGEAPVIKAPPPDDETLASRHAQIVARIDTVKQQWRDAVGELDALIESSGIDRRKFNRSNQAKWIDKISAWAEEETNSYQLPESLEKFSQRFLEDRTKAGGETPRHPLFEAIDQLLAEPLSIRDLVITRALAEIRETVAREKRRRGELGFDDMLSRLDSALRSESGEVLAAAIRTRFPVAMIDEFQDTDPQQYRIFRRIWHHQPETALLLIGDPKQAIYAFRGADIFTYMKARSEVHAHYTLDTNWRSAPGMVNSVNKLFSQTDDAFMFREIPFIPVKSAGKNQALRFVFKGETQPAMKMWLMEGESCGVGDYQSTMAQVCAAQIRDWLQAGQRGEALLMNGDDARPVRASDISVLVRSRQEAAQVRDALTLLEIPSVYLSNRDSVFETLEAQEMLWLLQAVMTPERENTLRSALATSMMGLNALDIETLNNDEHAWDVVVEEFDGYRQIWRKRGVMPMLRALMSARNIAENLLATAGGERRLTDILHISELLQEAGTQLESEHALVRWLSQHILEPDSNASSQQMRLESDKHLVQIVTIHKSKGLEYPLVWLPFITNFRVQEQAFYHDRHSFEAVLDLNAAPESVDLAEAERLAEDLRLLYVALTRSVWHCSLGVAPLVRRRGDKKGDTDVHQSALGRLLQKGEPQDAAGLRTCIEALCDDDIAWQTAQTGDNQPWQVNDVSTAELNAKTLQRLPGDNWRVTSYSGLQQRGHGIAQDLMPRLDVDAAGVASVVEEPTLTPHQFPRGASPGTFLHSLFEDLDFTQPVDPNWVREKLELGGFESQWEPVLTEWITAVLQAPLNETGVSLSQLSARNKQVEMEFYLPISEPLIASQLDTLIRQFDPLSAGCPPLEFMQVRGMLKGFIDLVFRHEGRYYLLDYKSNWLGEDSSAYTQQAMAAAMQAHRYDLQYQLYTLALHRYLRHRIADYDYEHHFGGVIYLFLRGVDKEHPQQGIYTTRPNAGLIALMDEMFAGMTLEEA
Nature of the data set: RecBCD inhibition via phage-restricted bacterial growth – absorbance, V66 E. coli, mutant T4 phage, counter-screen for AddAB inhibitor project, dose response (AID 492957). Format: functional, cell-based, Escherichia coli str. K-12 substr. MG1655.

The nature of data set [7]: Counterscreen for AddAB inhibitors: absorbance-based bacterial cell-based high throughput dose response assay for inhibitors of bacterial viability. [Related pubchem assays (depositor defined):AID435030, AID449728, AID449731, AID488942, AID488955, AID488956]. It counts as functional. On the technique in general: Counterscreens check selectivity or assay interference.
The nature of data set [8]: NIH-3T3 fibroblast cytotoxicity, dose response, cytotoxicity control, cell-based, fluorescence, Alamar Blue, secondary assay (AID 2327).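 Note: NIH-3T3 mouse fibroblasts cultured with fluconazole at 8 µg/mL.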 Format: functional. In general terms: Resazurin is reduced to fluorescent resorufin, in cell work by metabolically active cells.
The nature of data set [9]: luciferase reporter signal suppression in cells – H4 neuroglioma cells, luminescence, dose response (AID 1990). Format: functional, cell-based.
Data set [10] is described as follows: cells. It counts as functional, cell-based.
A short description of data set [11]: Luminescence Cell-Based Dose Response HTS to Identify Inhibitors of 5'UTR Stem-Loop Driven Prion Protein mRNA Translation in H4 Neuroglioblastoma Cells. [Related pubchem assays: 1827 (Project Summary), 1813 (Primary HTS)]. It counts as functional.
A short description of data set [12]: alpha-synuclein stem-loop luciferase translation blockers – H4 neuroglioma cells, luminescence, confirmation (AID 1988). It counts as functional, cell-based.
Data set [13] is described as follows: Trypanosoma cruzi growth suppression in host cells – NIH3T3 host cells, beta-gal luminescence, confirmation (AID 2044).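 Note: intracellular parasites grown in NIH/3T3 mouse fibroblasts as host cells; luminescent beta-galactosidase reporter signal from transgenic T. cruzi replicating inside host cells; inhibitors lower the luminescence signal.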 It counts as functional, cell-based.
The nature of data set [14]: cells. It counts as functional, cell-based. The source holds these as a separate data set.
Data set [15] in a line: NIH3T3 cell viability loss – ATP luminescence, mouse fibroblasts, counter-screen, dose response (AID 2010).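 Note: cells exposed to compound for about 90 hours before reading.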 It counts as functional, cell-based.
Data set [16] has as its system INS1. Briefly: INS-1E survival protection against cytokine death – cell-based, luminescence, retest, dose response (AID 449756).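 Note: cell death triggered by IL-1 beta plus TNF-alpha plus IFN-gamma mixture; protective hits raise ATP signal compared with cytokine alone wells.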 It counts as functional. The settings on record: Rattus norvegicus.

For orientation: AC50 means the concentration at which the activity in the assay is half-maximal. One may read the CC50 as the concentration at which the toxic effect on the cells reaches its halfway point. One may read the IC50 as the concentration at which inhibition is half-maximal. What is called EC50 is the concentration at which the effect is half-maximal.

Active and inactive are the calls of the source.

Chain of Cytochrome P450 2D6 (P10635 whole entry): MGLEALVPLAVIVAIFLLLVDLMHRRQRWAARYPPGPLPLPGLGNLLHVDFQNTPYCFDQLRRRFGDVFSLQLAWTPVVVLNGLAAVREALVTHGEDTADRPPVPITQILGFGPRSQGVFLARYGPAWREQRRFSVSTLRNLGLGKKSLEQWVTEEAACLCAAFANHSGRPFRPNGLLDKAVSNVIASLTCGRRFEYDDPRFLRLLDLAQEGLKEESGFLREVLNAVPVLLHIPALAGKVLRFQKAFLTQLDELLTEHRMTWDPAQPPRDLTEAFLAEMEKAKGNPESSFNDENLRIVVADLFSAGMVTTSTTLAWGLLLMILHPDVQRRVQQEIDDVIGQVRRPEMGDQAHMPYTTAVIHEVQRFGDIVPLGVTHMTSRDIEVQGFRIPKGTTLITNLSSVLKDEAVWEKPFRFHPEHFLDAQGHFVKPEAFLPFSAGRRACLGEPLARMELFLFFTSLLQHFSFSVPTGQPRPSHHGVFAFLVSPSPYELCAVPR
Chain of Cytochrome P450 3A4 (P08684 whole entry): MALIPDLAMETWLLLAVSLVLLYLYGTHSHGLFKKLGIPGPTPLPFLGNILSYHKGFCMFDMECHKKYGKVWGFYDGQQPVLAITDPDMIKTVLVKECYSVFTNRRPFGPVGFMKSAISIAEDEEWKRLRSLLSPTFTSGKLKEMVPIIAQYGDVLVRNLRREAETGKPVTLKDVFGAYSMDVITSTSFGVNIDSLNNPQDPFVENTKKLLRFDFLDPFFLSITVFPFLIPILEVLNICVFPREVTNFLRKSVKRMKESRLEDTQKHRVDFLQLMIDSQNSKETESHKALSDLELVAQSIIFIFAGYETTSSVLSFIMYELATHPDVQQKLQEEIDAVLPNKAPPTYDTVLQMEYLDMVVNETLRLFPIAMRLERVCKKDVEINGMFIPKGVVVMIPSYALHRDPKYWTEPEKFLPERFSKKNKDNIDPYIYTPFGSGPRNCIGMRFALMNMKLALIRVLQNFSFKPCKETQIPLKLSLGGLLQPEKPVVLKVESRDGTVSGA

Regarding `CCC(C)n1nccc1NC(=O)C(C)Cl` (stereo not given), in data set [1], the AC50 was 31.4 µM (active).

Turning to `COc1ccc(NC(=O)C2CCN(Cc3cnn(-c4ccccc4)c3-n3cccc3)CC2)cc1OC`, the AC50 in data set [1] was > 150 µM (inactive).

With `COc1ccc(Nc2nc(-c3ccccc3)nc3ccccc23)cc1S(=O)(=O)N1CCOCC1`, the CC50 in [2] was > 25 µM (active).

Take `Cc1cc(C(=O)N2CCN(c3ccccc3)CC2)no1`: the AC50 in data set [1] is 28.2 µM (active).

Take `CN(C)C(=O)N1CCCC(C(=O)NCCc2ccccc2)C1` (stereo not given): the AC50 in [3] is 10 µM (inconclusive); in data set [4], 39.8 µM (inconclusive); in data set [5], “inconclusive”.

As to `COc1ccc(NC(=O)Cn2cc(C(=O)c3ccco3)c3ccccc32)cc1`, the IC50 in [6] and in data set [7] was > 119 µM (inactive) in each case.

For the compound `COc1cccc(-c2nc(N(C)C)c3ccccc3n2)c1`, in data set [5], the AC50 entry is “inconclusive”.

As to `CN1CCCC2(CCN(C(=O)c3ccncc3)CC2)C1`, the AC50 is 7.94 µM (inconclusive) in data set [3] and “inconclusive” in data set [5].

Turning to `CCn1cc(C(=O)NCCCO)c(=O)c2cc(F)c(N3CCN(C)CC3)cc21`, the AC50 in data set [1] was 2.5 µM (active).

`COc1cccc(/C=N\NC(=O)c2ccc(Cn3cc(Br)c([N+](=O)[O-])n3)o2)c1O`: the EC50 in data set [8] was > 150 µM (inactive); in [9], 26 µM (active); in data set [10], 51.1 µM (active); in data set [11] it was 20.2 µM (active); in data set [12], 10.4 µM (active); in data set [13], 1.09 µM (active). The results for the concentration for a half-maximal effect (EC50) in data set [14] and in data set [15] were 28.6 µM (active) and > 60 µM (not active), respectively. The IC50 in data set [6] was > 119 µM (inactive); in data set [7] it was 31.8 µM (inactive). In data set [16], the AC50 is 1.89 µM (active).

Consider `Cc1ccnc(NS(=O)(=O)c2ccc(N)cc2)n1` [SULFAMERAZINE], for which the AC50 entry in [5] is listed as “inconclusive”.
